{"source": "paper PMC10077203", "about": "“Structure modification, antialgal, antiplasmodial, and toxic evaluations of a series of new marine-derived 14-membered resorcylic acid lactone derivatives” (Marine Life Science & Technology, 2021)", "key": {"[1]": {"tested_on": "chloroquine sensitive HB3 strain of P. falciparum", "assay": "In vitro antiplasmodial assay (Pico-Green growth inhibition)", "assay_type": "cell-based, Plasmodium falciparum", "conditions": "for pIC50: Plasmodium falciparum; for antiplasmodial activity against P. falciparum (in words): structure-activity discussion", "protocol": "In vitro antiplasmodial activity was performed by culturing human erythrocytes and infecting them with P. falciparum, as reported by Trager and Jensen ([1976]). Briefly, the chloroquine sensitive HB3 strain of P. falciparum-infected O + erythrocytes was cultured in RPMI 1640 medium supplemented with 10% human serum (from O + blood) at a hematocrit of 2% erythrocytes at 37 °C with a gas mixture containing 90% N2, 5% CO2, and 5% O2. Parasites were synchronized with 5% D-sorbitol (Lambros and Vanderberg [1979]). P. falciparum growth inhibition bioassays were performed with the procedure as described by Corbett et al. ([2004]), which used Pico-Green, a double stranded-DNA fluorescent dye to test the effect of compounds."}, "C. socialis": {"tested_on": "C. socialis", "assay": "Diatom growth inhibition assay (antialgal activity)", "assay_type": "cell-based, Chaetoceros socialis", "conditions": "48 h, read-out: EC50 C. socialis", "protocol": "(§1) The antialgal activity against the microalgae P. tricornutum Bohlin, C. vulgaris, C. socialis, N. laevissima, and N. exigua was evaluated by the method of Ortlepp et al. ([2008]). Briefly, the microalgae were grown in sterilized BG11 medium under light intensity of 2500 lx and 12 h: 12 h light: dark cycle at temperature of 20 ℃. The microalgae were grown to reach the logarithmic phase (approximately 5 × 10^5 cells/ml), which were used for microalgae growth inhibition assay. The compounds 1–71 were first dissolved in a small amount of DMSO and then diluted with 0.22 μm of filtered seawater (FSW) to achieve a range of concentrations from 0.625 to 50 μg/ml. Ten microliters of the compound solution was added to multiwell Petri dishes containing a 1-mL suspension of the microalgae (approximately 12 × 10^4 cells/ml). FSW with DMSO was used as a negative control, and solutions of SeaNine 211 in seawater were used as positive controls. After the plates were incubated for 48 h (16 ± 1 ℃) under continuous light, the FSW with non-attached microalgae was removed. The amount of chlorophyll a in attached microalgae was determined with a spectrophotometer (Beckman, model DU650, USA). Then the EC50 (inhibits 50% of settlement of cyprids in comparison with the control) was calculated using the Probit software program."}, "P. tricornutum Bohlin": {"tested_on": "P. tricornutum Bohlin", "assay": "Diatom growth inhibition assay (antialgal activity)", "assay_type": "cell-based, Phaeodactylum tricornutum Bohlin", "conditions": "48 h, read-out: EC50 P. tricornutum", "protocol": "as §1"}, "N. exigua": {"tested_on": "N. exigua", "assay": "Diatom growth inhibition assay (antialgal activity)", "assay_type": "cell-based, Navicula exigua", "protocol": "as §1"}, "N. laevissima": {"tested_on": "N. laevissima", "assay": "Diatom growth inhibition assay (antialgal activity)", "assay_type": "cell-based, Navicula laevissima", "conditions": "48 h, read-out: EC50 N. laevissima", "protocol": "as §1"}, "C. vulgaris": {"tested_on": "C. vulgaris", "assay": "Diatom growth inhibition assay (antialgal activity)", "assay_type": "cell-based, Chlorella vulgaris", "conditions": "Chlorella vulgaris, 48 h, read-out: EC50 C. vulgaris", "protocol": "as §1"}, "[2]": {"tested_on": "P. tricornutum Bohlin, C. vulgaris, C. socialis, N. laevissima, and N. exigua", "assay": "Diatom growth inhibition assay, whole panel", "assay_type": "cell-based", "conditions": "Chlorella vulgaris; selective and moderate activities; read-out: EC50 antialgal, range over compounds and algae", "protocol": "as §1"}, "zebrafish embryos": {"tested_on": "zebrafish embryos", "assay": "Zebrafish embryo toxicity test", "assay_type": "in vivo", "conditions": "50 μmol/L, after 24 h", "protocol": "Toxicity assays were carried out using the method of Wang et al. ([2011]). Briefly, the normal embryos were selected and transferred into a 24-well plate. The embryos at 1 h postfertilization (hpf) were exposed by immersion in E3 embryo medium containing the derivative in a 1% (v/v) DMSO final solvent concentration in a 24-well plate. The developmental phenotypes of the experimental status of the embryos were observed every 24 h for 72 h and were photographed with a charge-coupled device (CCD) camera."}, "[3]": {"conditions": "Chaetoceros socialis, chlorophyll a of attached microalgae"}, "[4]": {"conditions": "Phaeodactylum tricornutum, chlorophyll a of attached microalgae"}, "[5]": {"conditions": "48 h, chlorophyll a of attached microalgae, read-out: EC50 N. exigua"}, "[6]": {"conditions": "Sellaphora laevissima, chlorophyll a of attached microalgae"}, "[7]": {"conditions": "chlorophyll a of attached microalgae"}, "[8]": {"conditions": "Erythrocyte, HB3 strain in human erythrocytes, read-out: P. falciparum IC50"}}, "note": "pEC50, pIC50: −log10 of the molar value. Like-named read-outs stand apart in the source and are kept apart here.", "data": [{"smiles": "CCN(CC)CCCC(C)Nc1ccnc2cc(Cl)ccc12", "note": "(stereo not shown) [Chloroquine, reference compound]", "values": [{"measurement": "pIC50", "setting": "[1]; HB3, Erythrocyte, read-out: P. falciparum IC50", "value": 4.42}, {"measurement": "pIC50", "setting": "[1]; HB3, read-out: P. falciparum IC50 (positive control, methods)", "value": 7.48}]}, {"smiles": "COc1cc(O)c2c(c1)/C=C/C[C@H](O)[C@H](O)[C@@H](O)/C=C/C[C@H](C)OC2=O", "note": "[Compound 1, zeaenol]", "values": [{"measurement": "pEC50", "setting": "C. socialis; Chaetoceros socialis", "value": 4.59}, {"measurement": "pEC50", "setting": "P. tricornutum Bohlin; Phaeodactylum tricornutum", "value": 4.90}, {"measurement": "pEC50", "setting": "N. exigua; 48 h, read-out: EC50 N. exigua", "value": 4.62}, {"measurement": "pEC50", "setting": "N. laevissima; Sellaphora laevissima", "value": 5.06}, {"measurement": "pEC50", "setting": "C. vulgaris", "value": "< 5.00"}]}, {"smiles": "COc1cc(OC(=O)C(C)(C)C)c2c(c1Cl)C=CCC(O)C(O)C(O)C=CCC(C)OC2=O", "note": "(stereo not shown) [Compound 3]", "values": [{"measurement": "pEC50", "setting": "C. socialis; [3]", "value": "< 5.00"}, {"measurement": "pEC50", "setting": "P. tricornutum Bohlin; [4]", "value": 4.65}, {"measurement": "pEC50", "setting": "[2]", "value": "4.49 to 4.96"}, {"measurement": "pEC50", "setting": "N. exigua; [5]", "value": "< 5.00"}, {"measurement": "pEC50", "setting": "N. laevissima; [6]", "value": "< 5.00"}, {"measurement": "pEC50", "setting": "C. vulgaris; [7]", "value": 4.51}]}, {"smiles": "COc1cc2c(c(OCc3ccccc3)c1)C(=O)OC(C)CC=CC(O)C(O)C(O)CC=C2", "note": "(stereo not shown) [Compound 4]", "values": [{"measurement": "pEC50", "setting": "C. socialis; [3]", "value": "< 5.00"}, {"measurement": "pEC50", "setting": "P. tricornutum Bohlin; [4]", "value": 4.68}, {"measurement": "pEC50", "setting": "[2]", "value": "4.49 to 4.96"}, {"measurement": "pEC50", "setting": "N. exigua; [5]", "value": 4.96}, {"measurement": "pEC50", "setting": "N. laevissima; [6]", "value": 4.87}, {"measurement": "pEC50", "setting": "C. vulgaris; [7]", "value": "< 5.00"}]}, {"smiles": "COc1cc2c(c(OCc3ccccc3Br)c1)C(=O)OC(C)CC=CC(O)C(O)C(O)CC=C2", "note": "(stereo not shown) [Compound 9]", "values": [{"measurement": "pEC50", "setting": "C. socialis; [7]", "value": 5.05}, {"measurement": "pEC50", "setting": "C. socialis; [3]", "value": "> 5.00"}, {"measurement": "pEC50", "setting": "P. tricornutum Bohlin; [7]", "value": 5.16}, {"measurement": "pEC50", "setting": "P. tricornutum Bohlin; [4]", "value": "> 5.00"}, {"measurement": "pEC50", "setting": "N. exigua; [5]", "value": 4.72}, {"measurement": "pEC50", "setting": "N. laevissima; [7]", "value": 5.18}, {"measurement": "pEC50", "setting": "N. laevissima; [6]", "value": "> 5.00"}, {"measurement": "pEC50", "setting": "C. vulgaris; [7]", "value": "< 5.00"}]}, {"smiles": "COc1cc(COc2cc(OC)cc3c2C(=O)OC(C)CC=CC(O)C(O)C(O)CC=C3)cc(OC)c1", "note": "(stereo not shown) [Compound 12]", "values": [{"measurement": "pEC50", "setting": "C. socialis; [3]", "value": "< 5.00"}, {"measurement": "pEC50", "setting": "P. tricornutum Bohlin; [4]", "value": 4.49}, {"measurement": "pEC50", "setting": "[2]", "value": "4.49 to 4.96"}, {"measurement": "pEC50", "setting": "N. exigua; [5]", "value": "< 5.00"}, {"measurement": "pEC50", "setting": "N. laevissima; [6]", "value": 4.70}, {"measurement": "pEC50", "setting": "C. vulgaris; [7]", "value": "< 5.00"}]}, {"smiles": "COc1cc(COc2cc(OC)c(Cl)c3c2C(=O)OC(C)CC=CC(O)C(O)C(O)CC=C3)cc(OC)c1", "note": "(stereo not shown) [Compound 13]", "values": [{"measurement": "pEC50", "setting": "C. socialis; [3]", "value": 4.62}, {"measurement": "pEC50", "setting": "P. tricornutum Bohlin; [4]", "value": 4.85}, {"measurement": "pEC50", "setting": "[2]", "value": "4.49 to 4.96"}, {"measurement": "pIC50", "setting": "[1]; [8]", "value": 4.90}, {"measurement": "antiplasmodial activity against P. falciparum (in words)", "setting": "[1]", "value": "active"}, {"measurement": "pEC50", "setting": "N. exigua; [5]", "value": "< 5.00"}, {"measurement": "pEC50", "setting": "N. laevissima; [6]", "value": 4.77}, {"measurement": "pEC50", "setting": "C. vulgaris; [7]", "value": "< 5.00"}]}, {"smiles": "COc1cc2c(c(OCc3ccc4ccccc4c3)c1)C(=O)OC(C)CC=CC(O)C(O)C(O)CC=C2", "note": "(stereo not shown) [Compound 14]", "values": [{"measurement": "pEC50", "setting": "C. socialis; [3]", "value": 4.76}, {"measurement": "pEC50", "setting": "P. tricornutum Bohlin; [4]", "value": "< 5.00"}, {"measurement": "pEC50", "setting": "[2]", "value": "4.49 to 4.96"}, {"measurement": "death of zebrafish embryos", "setting": "zebrafish embryos", "value": "all embryos died"}, {"measurement": "pEC50", "setting": "N. exigua; [5]", "value": 4.73}, {"measurement": "pEC50", "setting": "N. laevissima; [6]", "value": 4.69}, {"measurement": "pEC50", "setting": "C. vulgaris; [7]", "value": "< 5.00"}]}, {"smiles": "COc1cc2c(c(OCc3cc(F)cc(F)c3)c1)C(=O)OC(C)CC=CC(O)C(O)C(O)CC=C2", "note": "(stereo not shown) [Compound 15]", "values": [{"measurement": "pEC50", "setting": "C. socialis; [3]", "value": 4.82}, {"measurement": "pEC50", "setting": "P. tricornutum Bohlin; [4]", "value": 4.48}, {"measurement": "pEC50", "setting": "[2]", "value": "4.49 to 4.96"}, {"measurement": "pEC50", "setting": "N. exigua; [5]", "value": 4.73}, {"measurement": "pEC50", "setting": "N. laevissima; [6]", "value": "< 5.00"}, {"measurement": "pEC50", "setting": "C. vulgaris; [7]", "value": "< 5.00"}]}, {"smiles": "COc1cc2c(c(OCc3ccc(Br)cc3F)c1)C(=O)OC(C)CC=CC(O)C(O)C(O)CC=C2", "note": "(stereo not shown) [Compound 24]", "values": [{"measurement": "pEC50", "setting": "C. socialis; [3]", "value": "< 5.00"}, {"measurement": "pEC50", "setting": "P. tricornutum Bohlin; [4]", "value": 4.95}, {"measurement": "pEC50", "setting": "[2]", "value": "4.49 to 4.96"}, {"measurement": "pEC50", "setting": "N. exigua; [5]", "value": 4.99}, {"measurement": "pEC50", "setting": "N. laevissima; [6]", "value": 4.65}, {"measurement": "pEC50", "setting": "C. vulgaris; [7]", "value": "< 5.00"}]}, {"smiles": "CCC(=O)Oc1cc(OC)cc2c1C(=O)OC(C)CC=CC1OC(C)(C)OC1C(O)CC=C2", "note": "(stereo not shown) [Compound 30]", "values": [{"measurement": "pIC50", "setting": "[1]; [8]", "value": 4.91}, {"measurement": "antiplasmodial activity against P. falciparum (in words)", "setting": "[1]", "value": "moderate activity"}]}, {"smiles": "COCC(=O)Oc1cc(OC)cc2c1C(=O)O[C@@H](C)C/C=C/[C@H](O)[C@@H](O)[C@@H](O)C/C=C/2", "note": "[Compound 34]", "values": [{"measurement": "pEC50", "setting": "C. socialis; [3]", "value": "< 5.00"}, {"measurement": "pEC50", "setting": "P. tricornutum Bohlin; [4]", "value": 4.79}, {"measurement": "antiplasmodial activity against P. falciparum (in words)", "setting": "[1]", "value": "moderate activity"}, {"measurement": "pEC50", "setting": "N. exigua; [5]", "value": 5.06}, {"measurement": "pEC50", "setting": "N. exigua; 48 h, chlorophyll a of attached microalgae; read-out: EC50 N. exigua", "value": 5.07}, {"measurement": "pEC50", "setting": "N. laevissima; [7]", "value": 5.06}, {"measurement": "pEC50", "setting": "N. laevissima; [6]", "value": 5.07}, {"measurement": "pEC50", "setting": "C. vulgaris; [7]", "value": 4.92}]}]}
